# According to patent US5106951A, “Antibody conjugates” (NeoRx Corporation, priority 1989, dated 1992):
# Assays:
# Experiment in all cases: Binding of doxorubicin by synthetic oligopeptide, absorbance titration
# [1] = target: synthetic oligopeptide, Peptide 1, CKWGWK-amide; details: pH 7.0 0.1M phosphate buffer, doxorubicin absorption at 475 nm or 565 nm titrated with peptide
# Source text: (§1) Experiments have been conducted to assess the use of synthetic oligopeptides to bind the drug doxorubicin. Binding was followed by changes in the visible spectrum of doxorubicin, and analyzed by titrating the drug absorption spectrum at 475 nm or 565 nm with varying concentrations of peptide, in pH 7.0 0.1M phosphate buffer. Binding curves were fit to a single hyperbola with the program Enzfitter (Elsevier-Biosoft). These peptides were designed to test the effectiveness in intercalating doxorubicin of a 1,3-spacing between amino acids containing aromatic groups in their side chains (i.e., a single non-aromatic amino acid intervenes between the two residues having aromatic side chains). The amino acids are C, cys; K, lys; W, trp; G, gly; E, glu; D, asp; Fmoc, 9-fluorenylmethoxycarbonyl, attached to the lysine epsilon-amino group; and MIANS, 2-(4'-maleimidylanilino)naphthalene-6-sulfonic acid attached to cysteine.
# [2] = target: synthetic oligopeptide, Peptide 10, EEK(Fmoc)GK(Fmoc)EEGGC; details: pH 7.0 0.1M phosphate buffer; doxorubicin absorption at 475 nm or 565 nm titrated with peptide
# Source text: as §1
# [3] = target: synthetic oligopeptide, Peptide 2, CKWGWGWK-amide; details: pH 7.0 0.1M phosphate buffer, doxorubicin absorption at 475 nm or 565 nm titrated with peptide
# Source text: as §1
# [4] = target: synthetic oligopeptide, Peptide 3, […]-amide; details: pH 7.0 0.1M phosphate buffer, doxorubicin absorption at 475 nm or 565 nm titrated with peptide
# Source text: as §1
# [5] = target: synthetic oligopeptide, Peptide 4, KK(Fmoc)GK(Fmoc)KGGC; details: pH 7.0 0.1M phosphate buffer, doxorubicin absorption at 475 nm or 565 nm titrated with peptide
# Source text: as §1
# [6] = target: synthetic oligopeptide, Peptide 7, EK(Fmoc)GK(Fmoc)EGGC; details: pH 7.0 0.1M phosphate buffer; 1,3 spacing of aromatic side chains
# Source text: as §1
# [7] = target: synthetic oligopeptide, Peptide 9, EK(Fmoc)EK(Fmoc)EGGC; details: pH 7.0 0.1M phosphate buffer, doxorubicin absorption at 475 nm or 565 nm titrated with peptide
# Source text: as §1
# [8] = target: synthetic oligopeptide, Peptide 5, EK(Fmoc)GGK(Fmoc)EGGC; details: pH 7.0 0.1M phosphate buffer, 1,4 spacing of aromatic side chains
# Source text: as §1, with “These peptides were designed to test the effectiveness in intercalating doxorubicin of a 1,3-spacing between amino acids containing aromatic groups in their side chains (i.e., a single non-aromatic amino acid intervenes between the two residues having aromatic side chains).” left out
# [9] = target: synthetic oligopeptide, Peptide 6, EK(Fmoc)K(Fmoc)EGGC; details: pH 7.0 0.1M phosphate buffer, 1,2 spacing of aromatic side chains
# Source text: as §1, with “These peptides were designed to test the effectiveness in intercalating doxorubicin of a 1,3-spacing between amino acids containing aromatic groups in their side chains (i.e., a single non-aromatic amino acid intervenes between the two residues having aromatic side chains).” left out
# [10] = target: synthetic oligopeptide, Peptide 8, DK(Fmoc)GK(Fmoc)DGGC (DK(Fmoc)GK(Fmoc)DGGC-amide); details: 50 μM doxorubicin in 0.1M phosphate buffer at pH 7.0, 475 nm, fit to single hyperbola; read-out: Kd (apparent dissociation constant)
# Source text: as §1
# No absorbance change was observed when the oligopeptide was added to buffer in the absence of doxorubicin. […] Oligopeptide carrier alone was added to the reference cuvette. The binding constant is derived from the nonlinear least squares best fit to a single hyperbola using the program Enzfitter (Elsevier-Biosoft), yielding an apparent dissociation constant of 22 μM.
# [11] = tested on: synthetic oligopeptide, Peptide 11, EC(MIANS)GC(MIANS)EGGC(Acm)
# Source text: as §1
# This oligopeptide was prepared by first synthesizing the oligopeptide ECGCEGGC(Acm), wherein "Acm" represents an acetamidomethyl protecting group. The synthesis was conducted using the solid phase methodology of Barany and Merrifield, supra, and Houghten, R. A., Proc Nat. Acad. Sci. USA 82:5131, 1985. The number of cysteine thiols per peptide was 1.8 as measured by titration with Ellman's reagent. […]
# The peptide concentration was determined with ninhydrin. […]
compound,measurement,setting,value
"COc1cccc2c1C(=O)c1c(O)c3c(c(O)c1C2=O)C[C@@](O)(C(=O)CO)C[C@@H]3O[C@H]1C[C@H](N)[C@H](O)[C@H](C)O1 [Doxorubicin, doxorubicin]",Kd,[1],no detectable
same,Kd,[1]; listed as doxorubicin,no detectable binding
same,Kd,[2],33 µM
same,Kd,[3],same
same,Kd,[3]; listed as doxorubicin,no detectable binding
same,Kd,[4],same
same,Kd,[4]; listed as doxorubicin,no detectable binding
same,Kd,[5],same
same,Kd,[5]; listed as doxorubicin,no detectable binding
same,Kd,[6],280 µM
same,Kd,[7],no detectable
same,Kd,[7]; listed as doxorubicin,binding is not observed
same,Kd,[8],same
same,Kd,[8]; listed as doxorubicin,the same result is obtained
same,Kd,[9],same
same,Kd,[9]; listed as doxorubicin,undetectable binding
same,Kd,[10],22 µM
same,improvement of binding of doxorubicin by MIANS side chain versus FMOC,"[11]; MIANS peptide compared with FMOC peptide, 1,3 spacing",about 6 fold
same,Kd,"[11]; pH 7.0 0.1M phosphate buffer, at 565 or 580 nm, read-out: Kd (best-fit apparent dissociation constant)",48 µM
